Like-named read-outs stand apart in the source and are kept apart here.
Key:
SARS-CoV2 Mpro = SARS-CoV2 Mpro (Severe acute respiratory syndrome coronavirus 2 (2019-nCoV) (SARS-CoV-2), UniProt P0DTD1); experiment: COVID-19 (SARS-CoV2) Mpro enzymatic assay; format: biochemical; details: 25 nM Mpro, 25 μM substrate
229E Mpro = 229E Mpro (Human coronavirus 229E (HCoV-229E), UniProt P0C6X1); experiment: 229E Mpro activity; format: biochemical
Sequence of 229E Mpro (P0C6X1 2966-3267 limits assumed): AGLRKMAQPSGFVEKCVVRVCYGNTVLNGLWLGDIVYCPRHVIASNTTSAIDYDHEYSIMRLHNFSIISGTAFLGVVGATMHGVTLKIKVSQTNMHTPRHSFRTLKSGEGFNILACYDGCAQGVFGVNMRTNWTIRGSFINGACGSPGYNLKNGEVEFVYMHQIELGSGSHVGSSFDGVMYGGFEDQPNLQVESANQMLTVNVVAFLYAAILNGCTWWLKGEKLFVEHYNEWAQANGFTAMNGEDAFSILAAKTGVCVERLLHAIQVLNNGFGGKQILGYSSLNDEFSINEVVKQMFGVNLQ
Experimental: Compounds are assayed using standard methods to assess compound activity and IC50. […] The assay buffer contains 20 mM of Tris-HCl (pH 7.3), 100 mM of NaCl, 1 mM of EDTA, 5mM of TCEP and 0.1% BSA.

| SMILES | IC50 (SARS-CoV2 Mpro) [µM] | EC50 (229E Mpro; read-out: 229E Mpro EC50) [µM] | EC50 (229E Mpro; 229E Mpro EC50) [µM] |
| --- | --- | --- | --- |
| CC1(C)CC(C[C@@H](C#N)NC(=O)C2CC3(CCCCC3)CN2C(=O)c2cc3cccc(Cl)c3[nH]2)C(=O)N1 (single isomer, unassigned) [930 (Isomer 3)] | < 2 | < 2 | – |
| COc1cccc2[nH]c(C(=O)N3CC4(CCCCC4)CC3C(=O)N[C@H](C#N)CC3CCC(C)(C)NC3=O)cc12 (single isomer, unassigned) [1111 (Isomer 1)] | < 2 | 2 to 10 | – |
| COc1cccc2[nH]c(C(=O)N[C@@H](Cc3cccnc3)C(=O)N[C@H](C#N)C[C@@H]3CCNC3=O)cc12 [Compound 191, N-[(1S)-2-[[(1S)-1-cyano-2-[(3S)-2-oxopyrrolidin-3-yl]ethyl]amino]-2-oxo-1-(3-pyridylmethyl)ethyl]-4-methoxy-1H-indole-2-carboxamide] | 2 to 10 | > 30 | – |
| CC1(C)CC(C[C@@H](C#N)NC(=O)C2CC3(CCCCC3)CN2C(=O)c2cc3cccc(Cl)c3[nH]2)C(=O)N1 (single isomer, unassigned) [930 (Isomer 3.2)] | 2 to 10 | 10 to 30 | – |
| COc1cccc2[nH]c(C(=O)N3CC4(CCC4)CC3C(=O)N[C@H](C#N)C[C@@H]3CCCNC3=O)cc12 (single isomer, unassigned) [719A (Isomer 1)] | 10 to 30 | 10 to 30 | – |
| N#C[C@H](C[C@@H]1CCCNC1=O)NC(=O)C1CC2(CCC2)CN1C(=O)c1cc2c(Cl)cccc2[nH]1 (single isomer, unassigned) [803 (Isomer 2)] | > 30 | > 30 | – |
| N#C[C@H](C[C@@H]1CCNC1=O)NC(=O)C1CC2(CCC2)CN1C(=O)c1cc2cccc(Cl)c2[nH]1 (single isomer, unassigned) [988 (Isomer 2)] | < 2 | < 2 | – |
| N#C[C@H](C[C@@H]1CCCNC1=O)NC(=O)C1CC2(CCC2)CN1C(=O)c1cc2ccc(Cl)cc2[nH]1 (single isomer, unassigned) [791 (Isomer 2)] | < 2 | < 2 | – |
| CC1(C)CC(C[C@@H](C#N)NC(=O)C2CC3(CCCCC3)CN2C(=O)c2cc3cccc(Cl)c3[nH]2)C(=O)N1 (single isomer, unassigned) [930 (Isomer 5)] | 10 to 30 | > 30 | – |
| CC1(C)CCC(C[C@@H](C#N)NC(=O)C2CC3(CCCCC3)CN2C(=O)c2cc3cccc(Cl)c3[nH]2)C(=O)N1 (single isomer, unassigned) [928 (Isomer 3)] | < 2 | 2 to 10 | – |
| N#C[C@H](C[C@@H]1CCNC1=O)NC(=O)C1CC2(CCC2)CN1C(=O)c1cc2cccc(Cl)c2[nH]1 (single isomer, unassigned) [988 (Isomer 1)] | > 30 | > 30 | – |
| COc1ccc(Cl)c2[nH]c(C(=O)N3CC4(CCCCC4)CC3C(=O)N[C@H](C#N)C[C@@H]3CCNC3=O)cc12 (single isomer, unassigned) [882 (Isomer 1)] | < 2 | < 2 | – |
| N#C[C@@]1(NC(=O)[C@H](CC2CC2)NC(=O)OCc2ccccc2)C[C@@H]2CC[C@H]1[C@@H]1C(=O)NC(=O)[C@H]21 (single isomer, unassigned) [495 (Isomer 2)] | > 30 | > 30 | – |
| N#C[C@H](C[C@@H]1CCCNC1=O)NC(=O)C1CC2(CN1C(=O)c1cc3cccc(Cl)c3[nH]1)CC(F)(F)C2 (single isomer, unassigned) [743 (Isomer 2)] | < 2 | < 2 | – |
| COc1cccc2[nH]c(C(=O)N3CC[C@H](c4ccccc4)[C@H]3C(=O)N[C@H](C#N)C[C@@H]3CCNC3=O)cc12 [Compound 163, (2S,3R)-N-((S)-1-cyano-2-((S)-2-oxopyrrolidin-3-yl)ethyl)-1-(4-methoxy-1H-indole-2-carbonyl)-3-phenylpyrrolidine-2-carboxamide] | 2 to 10 | 10 to 30 | – |
| N#C[C@H](C[C@@H]1CCCNC1=O)NC(=O)C1CC2(CCCCC2)CN1C(=O)c1cc2ccc(Cl)cc2[nH]1 (single isomer, unassigned) [733 (Isomer 2)] | 2 to 10 | 2 to 10 | – |
| COc1cccc2[nH]c(C(=O)N3CC4(CCCCC4)CC3C(=O)N[C@H](C#N)CC3CCC(C)(C)NC3=O)cc12 (single isomer, unassigned) [1111 (Isomer 3)] | < 2 | 2 to 10 | – |
| CC1(C)CC(C[C@@H](C#N)NC(=O)C2CC3(CCCCC3)CN2C(=O)c2cc3cccc(Cl)c3[nH]2)C(=O)N1 (single isomer, unassigned) [930 (Isomer 1)] | 10 to 30 | > 30 | – |
| N#C[C@H](C[C@@H]1CCCNC1=O)NC(=O)C1CC2(CCCCC2)CN1C(=O)c1cc2c(Cl)cccc2[nH]1 (single isomer, unassigned) [801 (Isomer 1)] | < 2 | < 2 | – |
| COc1cccc2[nH]c(C(=O)N3Cc4ccccc4C3C(=O)N[C@H](C#N)C[C@@H]3CCNC3=O)cc12 (single isomer, unassigned) [429A (Isomer 1)] | 10 to 30 | > 30 | – |
| COc1cccc2[nH]c(C(=O)N3NCCC[C@H]3C(=O)N[C@H](C#N)C[C@@H]3CCNC3=O)cc12 [Compound 199] | 10 to 30 | > 30 | – |

| SMILES | IC50 (SARS-CoV2 Mpro) [µM] | EC50 (229E Mpro; read-out: 229E Mpro EC50) [µM] | EC50 (229E Mpro; 229E Mpro EC50) [µM] |
| --- | --- | --- | --- |
| COc1cccc2[nH]c(C(=O)N3CC4(CCCCC4)CC3C(=O)N[C@H](C#N)CC3CCC(C)(C)NC3=O)cc12 (single isomer, unassigned) [1111 (Isomer 4)] | > 30 | > 30 | – |
| N#C[C@H](C[C@@H]1CCCNC1=O)NC(=O)C1CC2(CCC2)CN1C(=O)c1cc2c(Cl)cccc2[nH]1 (single isomer, unassigned) [803 (Isomer 3)] | < 2 | < 2 | – |
| N#C[C@H](C[C@@H]1CCNC1=O)NC(=O)C1CC2(CCC2)CN1C(=O)c1cc2ccc(Cl)cc2[nH]1 (single isomer, unassigned) [990 (Isomer 2)] | < 2 | < 2 | – |
| COc1cc(Cl)cc2[nH]c(C(=O)N3CC4(CCCCC4)CC3C(=O)N[C@H](C#N)C[C@@H]3CCCNC3=O)cc12 (single isomer, unassigned) [908 (Isomer 1)] | < 2 | < 2 | – |
| CC1(C)CCC(C[C@@H](C#N)NC(=O)C2CC3(CCCCC3)CN2C(=O)c2cc3cccc(Cl)c3[nH]2)C(=O)N1 (single isomer, unassigned) [928 (Isomer 4)] | 2 to 10 | > 30 | – |
| COc1ccc(Cl)c2[nH]c(C(=O)N3CC4(CCC4)CC3C(=O)N[C@H](C#N)C[C@@H]3CCNC3=O)cc12 (single isomer, unassigned) [992 (Isomer 2)] | > 30 | > 30 | – |
| N#C[C@H](C[C@@H]1CCCNC1=O)NC(=O)[C@H](CC1CC1)NC(=O)c1ccn[nH]1 [Compound 872, N-((S)-1-(((S)-1-cyano-2-((S)-2-oxopiperidin-3-yl)ethyl)amino)-3-cyclopropyl-1-oxopropan-2-yl)-1H-pyrazole-5-carboxamide] | 2 to 10 | 2 to 10 | – |
| COc1cccc2[nH]c(C(=O)N3CC4(CCC(F)(F)CC4)CC3C(=O)N[C@H](C#N)C[C@@H]3CCCNC3=O)cc12 (single isomer, unassigned) [982 (Isomer 1)] | < 2 | < 2 | – |
| N#C[C@H](C[C@@H]1CCNC1=O)NC(=O)C1CC2(CCC2)CN1C(=O)c1cc2ccc(Cl)c(Cl)c2[nH]1 (single isomer, unassigned) [814 (Isomer 2)] | < 2 | < 2 | – |
| COc1cccc2[nH]c(C(=O)N3C[C@H](C)C[C@H]3C(=O)N[C@H](C#N)C[C@@H]3CCNC3=O)cc12 [Compound 413] | 2 to 10 | < 2 | – |
| N#C[C@H](C[C@@H]1CCCNC1=O)NC(=O)C1CC2(CN1C(=O)c1cc3cccc(Cl)c3[nH]1)CC(F)(F)C2 (single isomer, unassigned) [743 (Isomer 1)] | > 30 | – | > 30 |
| CC1(C)CC(C[C@@H](C#N)NC(=O)C2CC3(CCCCC3)CN2C(=O)c2cc3cccc(Cl)c3[nH]2)C(=O)N1 (single isomer, unassigned) [930 (Isomer 4)] | 2 to 10 | 10 to 30 | – |
| N#C[C@H](C[C@@H]1CCCNC1=O)NC(=O)C1CC2(CCCCC2)CN1C(=O)c1cc2cccc(Cl)c2[nH]1 (single isomer, unassigned) [731 (Isomer 2)] | 2 to 10 | 10 to 30 | – |
| COc1cccc2[nH]c(C(=O)N3CC4(CCCCC4)CC3C(=O)N[C@H](C#N)CC3CCC(C)(C)NC3=O)cc12 (single isomer, unassigned) [1111 (Isomer 2)] | > 30 | > 30 | – |
| COc1cccc2[nH]c(C(=O)N[C@@H](CC3CC3)C(=O)N[C@](C)(C#N)CC3CCNC3=O)cc12 (single isomer, unassigned) [1055 (Isomer 2)] | > 30 | > 30 | – |
| N#C[C@H](C[C@@H]1CCNC1=O)NC(=O)C1CC2(CCC2)CN1C(=O)c1cc2ccc(Cl)c(Cl)c2[nH]1 (single isomer, unassigned) [814 (Isomer 1)] | > 30 | > 30 | – |
| COc1ccc(Cl)c2[nH]c(C(=O)N3CC4(CCCCC4)CC3C(=O)NC(C#N)C[C@@H]3CCCNC3=O)cc12 (single isomer, unassigned) [902 (Isomer 2)] | 2 to 10 | 10 to 30 | – |
| CC1(C)CC(C[C@@H](C#N)NC(=O)C2CC3(CCCCC3)CN2C(=O)c2cc3cccc(Cl)c3[nH]2)C(=O)N1 (single isomer, unassigned) [930 (Isomer 2)] | 10 to 30 | > 30 | – |
| N#C[C@H](C[C@@H]1CCNC1=O)NC(=O)C1CC2(CCC2)CN1C(=O)c1cc2ccc(Cl)cc2[nH]1 (single isomer, unassigned) [990 (Isomer 1)] | > 30 | > 30 | – |
| COc1cccc2[nH]c(C(=O)N3Cc4ccccc4C3C(=O)N[C@H](C#N)C[C@@H]3CCNC3=O)cc12 (single isomer, unassigned) [429A (Isomer 2)] | > 30 | > 30 | – |
| COc1ccc(Cl)c2[nH]c(C(=O)N3CC4(CCCCC4)CC3C(=O)NC(C#N)C[C@@H]3CCCNC3=O)cc12 (single isomer, unassigned) [902 (Isomer 1)] | < 2 | < 2 | – |

Reference: patent US11524940B1, “Inhibitors of cysteine proteases and methods of use thereof” (priority 2020, dated 2022)
